Earlier results in patent EP2792015B1, “HIGH SPECIFIC-ENERGY LI/02-CO2 BATTERY” (Robert Bosch GmbH, priority 2011, dated 2013).
Values after ≈ are worked out from the molar mass of the structure shown. Where two headings read alike, the source gives them in different places.

Settings: 1 atmosphere and 25°C

SMILES	Solubility (in H2O) [µg/mL]	Solubility (in propylene carbonate) [µg/mL]
O=C=O [CO2, carbon dioxide]	1450 (≈ 32.9 mM)	6115 (≈ 139 mM)
O=O [O2, oxygen]	8.3 (≈ 0.259 mM)	110 (≈ 3.44 mM)
